Laboratory results taken from patent publication US8759520B2, “Compounds for treating cancer” (Boehringer Ingelheim International GmbH, priority 2008, dated 2014).

Biological target: Bcl-2 (Homo sapiens, UniProt P10415)
Test: Homogeneous HTS assay for inhibitors of the Bcl-2 : Bak (72-87) BH3 domain interaction, fluorescence polarisation (2D-FIDA)
Assay type: binding
Settings: fluorescence polarisation, fluorescent labelled Bak BH3 domain derived peptide; read-out: IC50 [μM] Bcl-2
Source text: FIG. 1 is a schematic drawing of the Bcl-2: Bak (72-87) interaction assay based on fluorescence polarisation.
The homogeneous HTS assay for inhibitors of the Bcl-2 is shown schematically in FIG. 1. BH3 domain interaction is based on fluorescence polarisation. The inherent rotational diffusion of the Bak BH3 domain derived fluorescent labelled peptide decreases upon binding to Bc1-2. This shift in rotational diffusion is quantitated using the two-dimensional fluorescence intensity distribution analysis (2D-FIDA; Kask et al. 2000, Biophys. J. 78: 1703-1713).
Two different BH3 domain derived peptide ligands were synthesised and subsequently fluorescently labelled: • a 16mer peptide covering amino acids 72-87 of the Bak protein; this peptide had been used by Wang and co-workers and Holinger and coworkers in their Bcl-2 protein binding studies; Wang and co-workers reported an equilibrium binding constant KD of ˜0.2 μM to Bcl-2 protein; • peptide sequence: GQVGRQLAIIGDDINR—N (Wang et al. 2002, Proc. Natl. Acad. Sci. U.S.A. 97: 7124-7129; Holinger et al. 1999, J. Biol. Chem. 274: 13298-13304).

Chain of Bcl-2 (P10415 whole entry, species assumed, the tested form may be a part): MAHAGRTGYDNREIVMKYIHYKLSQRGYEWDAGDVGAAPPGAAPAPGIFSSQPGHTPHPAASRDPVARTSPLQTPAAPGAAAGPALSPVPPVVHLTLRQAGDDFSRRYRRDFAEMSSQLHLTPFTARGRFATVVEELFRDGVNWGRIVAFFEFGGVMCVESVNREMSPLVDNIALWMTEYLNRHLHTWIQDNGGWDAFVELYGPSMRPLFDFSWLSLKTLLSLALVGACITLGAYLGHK

CCOC(=O)c1cccc(OCCCn2c(=N)n(Cc3ccccc3)c3ccccc32)c1 [Compound 71, 3-[3-(3-Benzyl-2-imino-2,3-dihydro-benzoimidazol-1-yl)-propoxy]-benzoic acid ethyl ester] and CCOC(=O)c1cccc(OCCCn2c(=N)n(Cc3cccc(Br)c3)c3ccccc32)c1 [Compound 68, 3-{3-[3-(3-Bromo-benzyl)-2-imino-2,3-dihydro-benzoimidazol-1-yl]-propoxy}-benzoic acid ethyl ester] fall in the same range of IC50: 11 to 100 µM for the first, 11 to 100 µM for the second.

CCCCCCn1c(=N)n(CC(O)COc2ccccc2OC)c2ccccc21 (stereo not shown) [Compound 101, 1-(3-Hexyl-2-imino-2,3-dihydro-benzoimidazol-1-yl)-3-(2-methoxy-phenoxy)-propan-2-ol] and COc1ccccc1OCCn1c(=N)n(Cc2ccccc2)c2ccccc21 [Compound 95, 1-Benzyl-3-[2-(2-methoxy-phenoxy)-ethyl]-1,3-dihydro-benzoimidazol-2-ylideneamine] fall in the same range of IC50: 11 to 100 µM for the first, 11 to 100 µM for the second.

CCOC(=O)c1cccc(OCCCn2c(=N)n(Cc3ccc(N4CCN(Cc5ccccc5-c5ccccc5)CC4)cc3)c3ccccc32)c1 [Compound 69, 3-(3-{3-[4-(4-Biphenyl-2-ylmethyl-piperazin-1-yl)-benzyl]-2-imino-2,3-dihydro-benzoimidazol-1-yl}-propoxy)-benzoic acid ethyl ester] and N=c1n(CCCOc2ccccc2)c2ccccc2n1Cc1ccc(N2CCN(Cc3ccccc3-c3ccccc3)CC2)cc1 [Compound 28, 1-[4-(4-Biphenyl-2-ylmethyl-piperazin-1-yl)-benzyl]-3-(3-phenoxy-propyl)-1,3-dihydro-benzoimidazol-2-ylideneamine] cannot be ordered by IC50: under 10 µM for the first, under 10 µM for the second.

Compared with N=c1n(CCCOc2ccc(F)cc2)c2ccccc2n1Cc1ccc(CN2CCN(Cc3ccccc3-c3ccccc3)CC2)cc1 [Compound 49, 1-[4-(4-Biphenyl-2-ylmethyl-piperazin-1-ylmethyl)-benzyl]-3-[3-(4-fluoro-phenoxy)-propyl]-1,3-dihydro-benzoimidazol-2-ylideneamine], N=c1n(CCCOc2ccc(F)cc2)c2ccccc2n1Cc1ccc(N2CCN(Cc3ccccc3-c3ccccc3)CC2)nc1 [Compound 56, 1-[6-(4-Biphenyl-2-ylmethyl-piperazin-1-yl)-pyridin-3-ylmethyl]-3-[3-(4-fluoro-phenoxy)-propyl]-1,3-dihydro-benzoimidazol-2-ylideneamine] is lower in IC50: 11 to 100 µM for the first, under 10 µM for the second.

COC(=O)c1ccc(OCCCn2c(=N)n(Cc3ccc(Br)cc3)c3ccccc32)cc1 [Compound 66, 4-{3-[3-(4-Bromo-benzyl)-2-imino-2,3-dihydro-benzoimidazol-1-yl]-propoxy}-benzoic acid methyl ester] and Cc1ccc2c(c1)n(Cc1ccc(Br)cc1)c(=N)n2CCCOc1ccc(F)cc1 [Compound 58, 3-(4-Bromo-benzyl)-1-[3-(4-fluoro-phenoxy)-propyl]-5-methyl-1,3-dihydro-benzoimidazol-2-ylideneamine] fall in the same range of IC50: 11 to 100 µM for the first, 11 to 100 µM for the second.

N=c1n(Cc2ccccc2)c2ccccc2n1CC(O)c1ccco1 (stereo not shown) [Compound 91, 2-(3-Benzyl-2-imino-2,3-dihydro-benzoimidazol-1-yl)-1-furan-2-yl-ethanol] and N=c1n(Cc2ccccc2)c2ccccc2n1Cc1cccnc1 [Compound 2, 1-Benzyl-3-pyridin-3-ylmethyl-1,3-dihydro-benzoimidazol-2-ylideneamine] cannot be ordered by IC50: over 100 µM for the first, over 100 µM for the second.

N=c1n(CCCOc2ccc(F)cc2)c2ccccc2n1Cc1csc(Cl)n1 [Compound 34, 1-(2-Chloro-thiazol-4-ylmethyl)-3-[3-(4-fluoro-phenoxy)-propyl]-1,3-dihydro-benzoimidazol-2-ylideneamine] and N=c1n(CCCOc2ccc(F)cc2)c2ccccc2n1Cc1ccc(Cl)c(Cl)c1 [Compound 11, 1-(3,4-Dichloro-benzyl)-3-[3-(4-fluoro-phenoxy)-propyl]-1,3-dihydro-benzoimidazol-2-ylideneamine] fall in the same range of IC50: 11 to 100 µM for the first, 11 to 100 µM for the second.

Compared with N=c1n(CCCOc2ccc(F)cc2)c2cc(F)ccc2n1Cc1ccc(Br)cc1 [Compound 61, 1-(4-Bromo-benzyl)-5-fluoro-3-[3-(4-fluoro-phenoxy)-propyl]-1,3-dihydro-benzoimidazol-2-ylideneamine], N=c1n(CCCOc2ccc(Cl)cc2)c2ccccc2n1Cc1ccncc1 [Compound 9, 1-[3-(4-Chloro-phenoxy)-propyl]-3-pyridin-4-ylmethyl-1,3-dihydro-benzoimidazol-2-ylideneamine] is higher in IC50: 11 to 100 µM for the first, over 100 µM for the second.

First: N=c1n(CCCOc2ccc(F)cc2)c2ccccc2n1Cc1ccc(N2CCN(Cc3cccc(Cl)c3)CC2)cc1 [Compound 21, 1-{4-[4-(3-Chloro-benzyl)-piperazin-1-yl]-benzyl}-3-[3-(4-fluoro-phenoxy)-propyl]-1,3-dihydro-benzoimidazol-2-ylideneamine]
Second: N=c1n(CCCOc2ccc(F)cc2)c2ccccc2n1Cc1ccc(CN2CCN(c3cccc(Cl)c3)CC2)cc1 [Compound 41, 1-{4-[4-(3-Chloro-phenyl)-piperazin-1-ylmethyl]-benzyl}-3-[3-(4-fluoro-phenoxy)-propyl]-1,3-dihydro-benzoimidazol-2-ylideneamine]
The IC50 of the first is lower: under 10 µM for the first, 11 to 100 µM for the second.

Compared with N=c1n(CCCOc2ccc(F)cc2)c2ccccc2n1Cc1ccc(CN2CCN(Cc3ccc(Cl)cc3)CC2)cc1 [Compound 39, 1-{4-[4-(4-Chloro-benzyl)-piperazin-1-ylmethyl]-benzyl}-3-[3-(4-fluoro-phenoxy)-propyl]-1,3-dihydro-benzoimidazol-2-ylideneamine], N=c1n(CCCOc2ccc(F)cc2)c2ccccc2n1Cc1ccc(CN2CCN(Cc3cccc(Cl)c3)CC2)cc1 [Compound 47, 1-{4-[4-(3-Chloro-benzyl)-piperazin-1-ylmethyl]-benzyl}-3-[3-(4-fluoro-phenoxy)-propyl]-1,3-dihydro-benzoimidazol-2-ylideneamine] is lower in IC50: 11 to 100 µM for the first, under 10 µM for the second. The second is the more potent here.

First: CS(=O)(=O)NC(=O)c1cccc(OCCCn2c(=N)n(Cc3cccc(Br)c3)c3ccccc32)c1 [Compound 86, N-(3-{3-[3-(3-Bromo-benzyl)-2-imino-2,3-dihydro-benzoimidazol-1-yl]-propoxy}-benzoyl)-methanesulfonamide]
Second: N=c1n(CCCOc2ccc(F)cc2)c2ccccc2n1Cc1ccc(CNCC(=O)Nc2ccccc2Cl)cc1 [Compound 43, N-(2-Chloro-phenyl)-2-(4-{3-[3-(4-fluoro-phenoxy)-propyl]-2-imino-2,3-dihydro-benzoimidazol-1-ylmethyl}-benzylamino)-acetamide]
The IC50 of the first is lower: under 10 µM for the first, 11 to 100 µM for the second.

First: N=c1n(CCCOc2ccc(F)cc2)c2ccccc2n1Cc1cccc(N2CCN(Cc3ccccc3-c3ccccc3)CC2)c1 [Compound 26, 1-[3-(4-Biphenyl-2-ylmethyl-piperazin-1-yl)-benzyl]-3-[3-(4-fluoro-phenoxy)-propyl]-1,3-dihydro-benzoimidazol-2-ylideneamine]
Second: N=c1n(CCCOc2ccc(F)cc2)c2ccccc2n1Cc1ccc(N2CCN(Cc3ccccc3)CC2)nc1 [Compound 53, 1-[6-(4-Benzyl-piperazin-1-yl)-pyridin-3-ylmethyl]-3-[3-(4-fluoro-phenoxy)-propyl]-1,3-dihydro-benzoimidazol-2-ylideneamine]
The IC50 of the first is lower: under 10 µM for the first, 11 to 100 µM for the second.

For N=c1n(Cc2ccccc2)c2ccccc2n1CC(O)COc1ccc(Cl)cc1Cl (stereo not shown) [Compound 106, 1-(3-Benzyl-2-imino-2,3-dihydro-benzoimidazol-1-yl)-3-(2,4-dichloro-phenoxy)-propan-2-ol], the IC50 was 11 to 100 µM.
